# Measured values as given in PubChem BioAssay AID248 (DTP/NCI, 2004).
# “And” between values parts separate entries of the source, which are not always exact repeats. Equal entries are not always repeated. Toxic doses and inconclusive results are not listed.
# Tested on: L1210 leukemia ip in BDF1 mice, survival T/C
# Test: NCI In Vivo Anticancer Drug Screen. Data for tumor model L1210 Leukemia (intraperitoneal) in B6D2F1 (BDF1) mice
# Conditions: endpoint: mean survival time, higher = longer survival
# Method in brief: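 Tumor was transplanted into mice, which were then dosed with test compound or vehicle alone. Survival was recorded for each group, and the treated figure was expressed relative to the control figure.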
# [1] = dose: 100.0 mg/kg/injection, schedule: Q04DX003 (ip), vehicle: saline with Tween-80
# [2] = dose: 200.0 mg/kg/injection, schedule: Q04DX003 (ip), vehicle: saline with Tween-80
# [3] = dose: 400.0 mg/kg/injection, schedule: Q04DX003 (ip), vehicle: saline with Tween-80
# [4] = dose: 50.0 mg/kg/injection, schedule: Q04DX003 (ip), vehicle: Klucel (hydroxypropylcellulose) (HPC)
# [5] = dose: 100.0 mg/kg/injection, schedule: Q01DX009 (ip), vehicle: Klucel (hydroxypropylcellulose) (HPC)
# [6] = dose: 100.0 mg/kg/injection, schedule: Q04DX003 (ip), vehicle: Klucel (hydroxypropylcellulose) (HPC)
# [7] = dose: 200.0 mg/kg/injection, schedule: Q01DX009 (ip), vehicle: Klucel (hydroxypropylcellulose) (HPC)
# [8] = dose: 200.0 mg/kg/injection, schedule: Q04DX003 (ip), vehicle: Klucel (hydroxypropylcellulose) (HPC)
# [9] = dose: 100.0 mg/kg/injection, schedule: Q04DX002 (ip), vehicle: Klucel (hydroxypropylcellulose) (HPC)
# [10] = dose: 12.5 mg/kg/injection, schedule: Q01DX009 (ip), vehicle: saline
# [11] = dose: 100.0 mg/kg/injection, schedule: Q01DX001 (ip), vehicle: saline
# [12] = dose: 100.0 mg/kg/injection, schedule: Q01DX009 (ip), vehicle: saline with Tween-80
# [13] = dose: 200.0 mg/kg/injection, schedule: Q01DX009 (ip), vehicle: saline with Tween-80
# [14] = dose: 100.0 mg/kg/injection, schedule: Q01DX009 (ip), vehicle: saline
# [15] = dose: 100.0 mg/kg/injection, schedule: Q04DX003 (ip), vehicle: saline
# [16] = dose: 200.0 mg/kg/injection, schedule: Q01DX009 (ip), vehicle: saline
# [17] = dose: 400.0 mg/kg/injection, schedule: Q04DX003 (ip), vehicle: saline
# [18] = dose: 25.0 mg/kg/injection, schedule: Q04DX002 (ip), vehicle: Klucel (hydroxypropylcellulose) (HPC)
# [19] = dose: 50.0 mg/kg/injection, schedule: Q04DX002 (ip), vehicle: Klucel (hydroxypropylcellulose) (HPC)
# [20] = dose: 200.0 mg/kg/injection, schedule: Q01DX001 (ip), vehicle: saline
structure (smiles),measurement,setting,value
O=C(O)c1c(F)c(F)c(Br)c(F)c1F,T/C,"dose: 25.6 mg/kg/injection, schedule: Q04DX002 (ip), vehicle: saline with Tween-80",168 % of control
same,T/C,"dose: 64.0 mg/kg/injection, schedule: Q04DX002 (ip), vehicle: saline with Tween-80",91 % of control
same,T/C,"dose: 160.0 mg/kg/injection, schedule: Q04DX002 (ip), vehicle: saline with Tween-80",94 % of control
same,T/C,"dose: 400.0 mg/kg/injection, schedule: Q04DX002 (ip), vehicle: saline with Tween-80",94 % of control
Nc1nc2nn(-c3ccccc3)nc2c(=O)[nH]1,T/C,[1],100 % of control
same,T/C,[2],93 % of control
same,T/C,[3],94 % of control
O=C(O)CCSSCCC(=O)O,T/C,[4],103 % of control
same,T/C,[5],95 % of control
same,T/C,[6],86 % of control
same,T/C,[7],87 % of control
same,T/C,[8],86 % of control
CCOC(=O)N1C=Cn2c(cnc2C)C1OC (stereo not drawn),T/C,"dose: 50.0 mg/kg/injection, schedule: Q01DX009 (ip), vehicle: water",93 % of control
same,T/C,"dose: 100.0 mg/kg/injection, schedule: Q01DX009 (ip), vehicle: water",98 % of control
same,T/C,"dose: 200.0 mg/kg/injection, schedule: Q01DX009 (ip), vehicle: water",95 % of control and 86 % of control
O=S(=O)(O)c1ccc(CCCCCCCCl)cc1,T/C,[9],100 % of control
same,T/C,"dose: 200.0 mg/kg/injection, schedule: Q04DX002 (ip), vehicle: Klucel (hydroxypropylcellulose) (HPC)",90 % of control
OCC1OC(n2cnc3c([Se]Cc4ccccc4)ncnc32)C(O)C1O (stereo not drawn),T/C,"dose: 1.56 mg/kg/injection, schedule: Q01DX005 (ip), vehicle: saline",97 % of control
same,T/C,"dose: 3.12 mg/kg/injection, schedule: Q01DX005 (ip), vehicle: saline",94 % of control
same,T/C,"dose: 3.12 mg/kg/injection, schedule: Q01DX009 (ip), vehicle: saline",103 % of control
same,T/C,"dose: 6.25 mg/kg/injection, schedule: Q01DX005 (ip), vehicle: saline",97 % of control
same,T/C,"dose: 6.25 mg/kg/injection, schedule: Q01DX009 (ip), vehicle: saline",95 % of control
same,T/C,"dose: 12.5 mg/kg/injection, schedule: Q01DX005 (ip), vehicle: saline",110 % of control
same,T/C,[10],105 % of control
CN1CCCC2C(c3ccccc3)C(C3=NCCCC3)C(c3ccccc3)CC21 (stereo not drawn),T/C,[11],88 % of control
CCCCCCCCC(C(=O)c1ccccc1)C(O)(C(F)(F)F)C(F)(F)F (stereo not drawn),T/C,[12],100 % of control
same,T/C,[13],106 % of control
Cc1ccc(C(=O)C2C3C=CC(C3)C2C(=O)c2ccc(C)cc2)cc1 (stereo not drawn),T/C,"dose: 75.0 mg/kg/injection, schedule: Q01DX009 (ip), vehicle: Klucel (hydroxypropylcellulose) (HPC)",95 % of control
same,T/C,"dose: 150.0 mg/kg/injection, schedule: Q01DX009 (ip), vehicle: Klucel (hydroxypropylcellulose) (HPC)",90 % of control
same,T/C,"dose: 300.0 mg/kg/injection, schedule: Q01DX009 (ip), vehicle: Klucel (hydroxypropylcellulose) (HPC)",95 % of control
C[N+]1(CCC(c2ccccc2)c2ccccc2)CCCCC1,T/C,[10],97 % of control
same,T/C,"dose: 25.0 mg/kg/injection, schedule: Q01DX009 (ip), vehicle: saline",96 % of control
same,T/C,"dose: 50.0 mg/kg/injection, schedule: Q01DX009 (ip), vehicle: saline",96 % of control
C=C(Br)CN1C(=O)c2ccccc2C1=O,T/C,[14],89 % of control
same,T/C,[15],101 % of control
same,T/C,[16],112 % of control
same,T/C,"dose: 200.0 mg/kg/injection, schedule: Q04DX003 (ip), vehicle: saline",104 % of control
same,T/C,"dose: 400.0 mg/kg/injection, schedule: Q01DX009 (ip), vehicle: saline",87 % of control
same,T/C,[17],93 % of control
COc1cc2c(cc1OC)-c1cc3cc(OC)c(OC)cc3c(C)[n+]1CC2,T/C,"dose: 12.5 mg/kg/injection, schedule: Q04DX002 (ip), vehicle: Klucel (hydroxypropylcellulose) (HPC)",102 % of control
same,T/C,[18],105 % of control
same,T/C,[19],105 % of control
O/N=C/c1ccc(Cl)cc1Cl,T/C,[4],97 % of control
same,T/C,"dose: 100.0 mg/kg/injection, schedule: Q01DX001 (ip), vehicle: Klucel (hydroxypropylcellulose) (HPC)",94 % of control
same,T/C,[6],95 % of control
same,T/C,"dose: 200.0 mg/kg/injection, schedule: Q01DX001 (ip), vehicle: Klucel (hydroxypropylcellulose) (HPC)",97 % of control
same,T/C,[8],97 % of control
same,T/C,"dose: 400.0 mg/kg/injection, schedule: Q01DX001 (ip), vehicle: Klucel (hydroxypropylcellulose) (HPC)",102 % of control
ClCCN1CCN(CCCN2c3ccccc3CCc3ccccc32)CC1,T/C,"dose: 12.5 mg/kg/injection, schedule: Q04DX003 (ip), vehicle: saline",106 % of control
same,T/C,"dose: 25.0 mg/kg/injection, schedule: Q04DX003 (ip), vehicle: saline",94 % of control
same,T/C,"dose: 50.0 mg/kg/injection, schedule: Q04DX003 (ip), vehicle: saline",114 % of control
same,T/C,[15],102 % of control and 110 % of control
same,T/C,"dose: 150.0 mg/kg/injection, schedule: Q04DX003 (ip), vehicle: saline",93 % of control
same,T/C,"dose: 225.0 mg/kg/injection, schedule: Q04DX003 (ip), vehicle: saline",103 % of control
same,T/C,"dose: 335.0 mg/kg/injection, schedule: Q04DX003 (ip), vehicle: saline",93 % of control and 109 % of control
same,T/C,[17],101 % of control
C=CC(=O)N1c2ccccc2N(C(=O)C=C)C(C)C1C (stereo not drawn),T/C,[11],112 % of control
same,T/C,[20],104 % of control
same,T/C,"dose: 400.0 mg/kg/injection, schedule: Q01DX001 (ip), vehicle: saline",98 % of control
NCCc1ccc(F)cc1,T/C,[14],109 % of control
same,T/C,[16],97 % of control
Cc1ccc(CSc2ssc(=S)c2-c2ccccc2)cc1,T/C,[12],101 % of control
same,T/C,"dose: 100.0 mg/kg/injection, schedule: Q04DX003 (ip), vehicle: acetone",99 % of control
same,T/C,[13],97 % of control
same,T/C,"dose: 200.0 mg/kg/injection, schedule: Q04DX003 (ip), vehicle: acetone",98 % of control
same,T/C,"dose: 400.0 mg/kg/injection, schedule: Q01DX009 (ip), vehicle: saline with Tween-80",95 % of control
same,T/C,"dose: 400.0 mg/kg/injection, schedule: Q04DX003 (ip), vehicle: acetone",91 % of control
O=C(COc1ccc([N+](=O)[O-])cc1Cl)N1CCOCC1,T/C,[5],103 % of control
same,T/C,[6],98 % of control
same,T/C,[7],97 % of control
same,T/C,[8],103 % of control
same,T/C,"dose: 400.0 mg/kg/injection, schedule: Q01DX009 (ip), vehicle: Klucel (hydroxypropylcellulose) (HPC)",101 % of control
same,T/C,"dose: 400.0 mg/kg/injection, schedule: Q04DX003 (ip), vehicle: Klucel (hydroxypropylcellulose) (HPC)",95 % of control
NC(N)=NN=C(c1ccc([N+](=O)[O-])s1)c1ccc([N+](=O)[O-])s1,T/C,"dose: 15.0 mg/kg/injection, schedule: Q01DX Z (ip), vehicle: carboxymethylcellulose (CMC)",97 % of control
same,T/C,"dose: 30.0 mg/kg/injection, schedule: Q01DX Z (ip), vehicle: carboxymethylcellulose (CMC)",95 % of control
same,T/C,"dose: 60.0 mg/kg/injection, schedule: Q01DX Z (ip), vehicle: carboxymethylcellulose (CMC)",97 % of control and 105 % of control
same,T/C,"dose: 120.0 mg/kg/injection, schedule: Q01DX Z (ip), vehicle: carboxymethylcellulose (CMC)",94 % of control and 95 % of control
same,T/C,"dose: 240.0 mg/kg/injection, schedule: Q01DX Z (ip), vehicle: carboxymethylcellulose (CMC)",100 % of control
same,T/C,"dose: 480.0 mg/kg/injection, schedule: Q01DX Z (ip), vehicle: carboxymethylcellulose (CMC)",90 % of control
CCN(CC)CCOCCOC(=O)C(CC)(CC)c1cccc2ccccc12,T/C,[18],93 % of control
same,T/C,[19],97 % of control
same,T/C,[9],93 % of control
CNC(=O)C(c1ccccc1)C(O)c1ccccc1 (stereo not drawn),T/C,"dose: 50.0 mg/kg/injection, schedule: Q01DX001 (ip), vehicle: saline",103 % of control
same,T/C,[11],101 % of control
same,T/C,[20],103 % of control
O=C1c2ccccc2C(C(C/C(=N/O)c2ccccc2)c2ccccc2)c2ccccc21 (stereo not drawn),T/C,[1],93 % of control
same,T/C,[2],93 % of control
same,T/C,[3],100 % of control
